Source: patent EP4273147A1, “SUBSTITUTED SPIROLACTAMS, SALTS THEREOF AND THEIR USE AS HERBICIDALLY ACTIVE SUBSTANCES” (Bayer Aktiengesellschaft, priority 2022, dated 2023)

What was measured:
SETVI [1] = test: Herbicidal pre-emergence action, section C (Table C10); format: in vivo, Setaria viridis; conditions: application rate 320 g/ha; visual grading after ca. 3 weeks
Excerpt: (§4) Seeds of mono- and dicotyledonous weed plants and crop plants were sown, in plastic or organic planting pots, in sandy loam and covered with soil. The compounds according to the invention, formulated in the form of wettable powders (WP) or as emulsifiable concentrates (EC), were applied to the surface of the covering soil as aqueous suspension or emulsion, with the addition of 0.5% of an additive, at an application rate of 600 1 of water/ha (converted). Following treatment, the pots were placed in a greenhouse and kept under optimum growth conditions for the test plants.

GLXMA [2] = test: Post-emergence effects on crop plants (Table F4); format: in vivo, Glycine max; conditions: crop plant GLXMA
Excerpt: (§1) 2 to 3 weeks after sowing, the test plants were sprayed in the single-leaf stage.

ZEAMX [3] = test: Post-emergence effects on crop plants (Table F1); format: in vivo, Zea mays; conditions: application rate 320 g/ha, crop plant ZEAMX
Excerpt: as §1

POAAN [4] = test: Herbicidal post-emergence action (Table B7); format: in vivo, Poa annua; conditions: application rate 1280 g/ha
How it was run: (§2)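 Greenhouse pot assay, sandy loam soil, one weed species per pot. Application at one-leaf stage. Readout ~3 wk post-treatment: visual % activity, 100 = dead, 0 = as untreated.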

VERPE [5] = test: Herbicidal pre-emergence action (Table A11); format: in vivo, Veronica persica; conditions: application rate 1280 g/ha; visual grading after ca. 3 weeks
How it was run: (§3)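 One monocotyledonous and one dicotyledonous weed species shared each pot. Seeds were sown in sandy loam and covered over with soil.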

TRZAS [6] = test: Post-emergence effects on crop plants (Table F2); format: in vivo, Triticum aestivum; conditions: application rate 320 g/ha, crop plant TRZAS
Excerpt: as §1

POAAN [7] = test: Herbicidal pre-emergence action (Table A7); format: in vivo, Poa annua; conditions: application rate 320 g/ha; visual grading after ca. 3 weeks
How it was run: as §3

KCHSC [8] = test: Herbicidal post-emergence action (Table B4); format: in vivo, Kochia scoparia; conditions: application rate 1280 g/ha; rated visually after about 3 weeks
How it was run: as §2

MATIN [9] = test: Herbicidal pre-emergence action (Table A4); format: in vivo, Matricaria inodora; conditions: visual grading after ca. 3 weeks
How it was run: as §3

ZEAMX [10] = test: Pre-emergence effects on crop plants (Table D1); format: in vivo, Zea mays; conditions: crop plant; application rate 80 g/ha; visual grading after ca. 3 weeks
MATIN [11] = test: Herbicidal post-emergence action (Table B6); format: in vivo, Matricaria inodora; conditions: application rate 1280 g/ha; rated visually after about 3 weeks
How it was run: as §2

POLCO = test: Herbicidal pre-emergence action, section C (Table C9); format: in vivo, Polygonum convolvulus; conditions: application rate 80 g/ha; visual grading after ca. 3 weeks
LOLRI [12] = test: Herbicidal pre-emergence action, section C (Table C7); format: in vivo, Lolium rigidum; conditions: application rate 320 g/ha; visual grading after ca. 3 weeks
ALOMY [13] = test: Herbicidal pre-emergence action, section C (Table C2); format: in vivo, Alopecurus myosuroides; conditions: visual grading after ca. 3 weeks
Excerpt: as §4

ORYZA [14] = test: Pre-emergence effects on crop plants (Table D3); conditions: crop plant; application rate 80 g/ha; visual grading after ca. 3 weeks
KCHSC [15] = test: Herbicidal pre-emergence action (Table A10); format: in vivo, Kochia scoparia; conditions: application rate 320 g/ha; visual grading after ca. 3 weeks
How it was run: as §3

VIOTR [16] = test: Herbicidal pre-emergence action, section C (Table C12); format: in vivo, Viola tricolor; conditions: application rate 80 g/ha; visual grading after ca. 3 weeks
ABUTH [17] = test: Herbicidal pre-emergence action (Table A1); format: in vivo, Abutilon theophrasti; conditions: visual grading after ca. 3 weeks vs untreated controls (100% = plants have died off, 0% = as control plants)
How it was run: as §3

SETVI [18] = test: Herbicidal pre-emergence action (Table A5); format: in vivo, Setaria viridis; conditions: visual grading after ca. 3 weeks
How it was run: as §3

VERPE [19] = test: Herbicidal post-emergence action (Table B10); format: in vivo, Veronica persica; conditions: application rate 1280 g/ha
How it was run: as §2

DIGSA [20] = test: Herbicidal post-emergence action (Table B12); format: in vivo, Digitaria sanguinalis; conditions: application rate 1280 g/ha
Procedure: Seeds of mono- and dicotyledonous weed plants were placed in plastic pots in sandy loam soil (doubly sown with in each case one species of mono- or dicotyledonous weed plants per pot), covered with soil and cultivated in a greenhouse under controlled growth conditions. 2 to 3 weeks after sowing, the test plants were treated at the one-leaf stage. […] After the test plants had been kept in the greenhouse under optimum growth conditions for about 3 weeks, the activity of the preparations was rated visually in comparison to untreated controls. For example, 100% activity = the plants have died, 0% activity = like control plants.

ABUTH [21] = test: Herbicidal post-emergence action (Table B1); format: in vivo, Abutilon theophrasti; conditions: treated at one-leaf stage, rated visually after about 3 weeks vs untreated controls (100% = plants have died, 0% = like control plants)
How it was run: as §2

ECHCG [22] = test: Herbicidal post-emergence action (Table B3); format: in vivo, Echinochloa crus-galli; conditions: rated visually after about 3 weeks
How it was run: as §2

AMARE [23] = test: Herbicidal pre-emergence action, section C (Table C3); format: in vivo, Amaranthus retroflexus; conditions: application rate 320 g/ha; visual grading after ca. 3 weeks
VERPE [24] = test: Herbicidal pre-emergence action, section C (Table C11); format: in vivo, Veronica persica; conditions: visual grading after ca. 3 weeks
STEME = test: Herbicidal pre-emergence action (Table A6); format: in vivo, Stellaria media; conditions: application rate 320 g/ha; visual grading after ca. 3 weeks
How it was run: as §3

SETVI [25] = test: Herbicidal post-emergence action (Table B8); format: in vivo, Setaria viridis
How it was run: as §2

ALOMY [26] = test: Herbicidal pre-emergence action (Table A9); format: in vivo, Alopecurus myosuroides; conditions: application rate 1280 g/ha; visual grading after ca. 3 weeks
How it was run: as §3

ECHCG [27] = test: Herbicidal pre-emergence action, section C (Table C6); format: in vivo, Echinochloa crus-galli; conditions: application rate 80 g/ha; visual grading after ca. 3 weeks
DIGSA [28] = test: Herbicidal pre-emergence action, section C (Table C5); format: in vivo, Digitaria sanguinalis; conditions: application rate 80 g/ha; visual grading after ca. 3 weeks
DIGSA [29] = test: Herbicidal pre-emergence action (Table A12); format: in vivo, Digitaria sanguinalis; conditions: application rate 320 g/ha; visual grading after ca. 3 weeks
How it was run: as §3

ABUTH [30] = test: Herbicidal pre-emergence action, section C (Table C1); format: in vivo, Abutilon theophrasti; conditions: application rate 80 g/ha; visual grading after ca. 3 weeks
AMARE [31] = test: Herbicidal post-emergence action (Table B11); format: in vivo, Amaranthus retroflexus; conditions: application rate 1280 g/ha
How it was run: as §2

MATIN [32] = test: Herbicidal pre-emergence action, section C (Table C8); format: in vivo, Matricaria inodora; conditions: application rate 320 g/ha; visual grading after ca. 3 weeks
ORYZA [33] = test: Post-emergence effects on crop plants (Table F3); format: in vivo, Oryza sativa; conditions: application rate 320 g/ha, crop plant ORYZA
Excerpt: as §1

ECHCG [34] = test: Herbicidal pre-emergence action (Table A2); format: in vivo, Echinochloa crus-galli; conditions: application rate 320 g/ha; visual grading after ca. 3 weeks
How it was run: as §3

AMARE [35] = test: Herbicidal pre-emergence action (Table A8); format: in vivo, Amaranthus retroflexus; conditions: application rate 320 g/ha; visual grading after ca. 3 weeks vs untreated controls (100% = plants have died off, 0% = as control plants)
How it was run: as §3

LOLRI [36] = test: Herbicidal pre-emergence action (Table A3); format: in vivo, Lolium rigidum; conditions: application rate 320 g/ha; visual grading after ca. 3 weeks
How it was run: as §3

VERPE [37] = test: Herbicidal post-emergence action, section E (Table E9); format: in vivo, Veronica persica; conditions: application rate 320 g/ha; assessed visually after ca. 3 weeks
Excerpt: as §1

VIOTR [38] = test: Herbicidal post-emergence action, section E (Table E10); format: in vivo, Viola tricolor; conditions: application rate 320 g/ha; assessed visually after ca. 3 weeks
Excerpt: as §1

GLXMA [39] = test: Pre-emergence effects on crop plants (Table D4); format: in vivo, Glycine max; conditions: crop plant; application rate 320 g/ha; visual grading after ca. 3 weeks
LOLRI [40] = test: Herbicidal post-emergence action (Table B5); format: in vivo, Lolium rigidum; conditions: application rate 1280 g/ha; rated visually after about 3 weeks
How it was run: as §2

TRZAS [41] = test: Pre-emergence effects on crop plants (Table D2); format: in vivo, Triticum aestivum; conditions: crop plant; application rate 80 g/ha; visual grading after ca. 3 weeks
ABUTH [42] = test: Herbicidal post-emergence action, section E (Table E1); format: in vivo, Abutilon theophrasti; conditions: application rate 320 g/ha; assessed visually after ca. 3 weeks
Excerpt: as §1

SMILES | pre-emergence activity against SETVI (SETVI [1]) [%] | post-emergence activity against ZEAMX (ZEAMX [3]) [%] | pre-emergence activity against VERPE (VERPE [5]) [%] | post-emergence activity against TRZAS (TRZAS [6]) [%] | pre-emergence activity against POAAN (POAAN [7]) [%] | pre-emergence activity against ZEAMX (ZEAMX [10]) [%] | post-emergence activity against MATIN (MATIN [11]) [%] | pre-emergence activity against LOLRI (LOLRI [12]) [%] | pre-emergence activity against ORYZA (ORYZA [14]) [%] | pre-emergence activity against KCHSC (KCHSC [15]) [%] | pre-emergence activity against VIOTR (VIOTR [16]) [%] | pre-emergence activity against STEME (STEME) [%] | pre-emergence activity against ALOMY (ALOMY [26]) [%] | pre-emergence activity against DIGSA (DIGSA [28]) [%] | pre-emergence activity against DIGSA (DIGSA [29]) [%] | pre-emergence activity against MATIN (MATIN [32]) [%] | post-emergence activity against ORYZA (ORYZA [33]) [%] | pre-emergence activity against ECHCG (ECHCG [34]) [%] | pre-emergence activity against LOLRI (LOLRI [36]) [%] | further results
O=C1N(Cc2ccccc2F)CCCC12CCN(Cc1cccc(F)c1F)C2=O (racemic) [I-016] | 100 | 0 | 90 | 0 | 100 | 0 | 90 | 100 | 0 | 90 | 90 | 90 | 90 | 100 | 100 | 90 | 0 | 100 | 100 | post-emergence activity against GLXMA (GLXMA [2]; application rate 80 g/ha): 0%; post-emergence activity against POAAN (POAAN [4]): 90%; post-emergence activity against KCHSC (KCHSC [8]): 90%; pre-emergence activity against MATIN (MATIN [9]; application rate 320 g/ha): 90%; pre-emergence activity against POLCO (POLCO): 90%; pre-emergence activity against ALOMY (ALOMY [13]; application rate 80 g/ha): 90%; pre-emergence activity against ABUTH (ABUTH [17]; application rate 320 g/ha): 90%; pre-emergence activity against SETVI (SETVI [18]; application rate 320 g/ha): 100%; post-emergence activity against VERPE (VERPE [19]): 90%; post-emergence activity against DIGSA (DIGSA [20]): 90%; post-emergence activity against ABUTH (ABUTH [21]; application rate 320 g/ha): 90%; post-emergence activity against ECHCG (ECHCG [22]; application rate 320 g/ha): 90%; pre-emergence activity against AMARE (AMARE [23]): 90%; pre-emergence activity against VERPE (VERPE [24]; application rate 320 g/ha): 90%; post-emergence activity against SETVI (SETVI [25]; application rate 320 g/ha): 90%; pre-emergence activity against ECHCG (ECHCG [27]): 100%; pre-emergence activity against ABUTH (ABUTH [30]): 80%; post-emergence activity against AMARE (AMARE [31]): 90%; pre-emergence activity against AMARE (AMARE [35]): 90%
O=C1N(Cc2c(F)cccc2F)CCCC12CCN(Cc1c(F)cccc1F)C2=O (racemic) [I-037] | 100 | 0 | 90 | 0 | 100 | 0 | 90 | 100 | 0 | 90 | 90 | 90 | 90 | 100 | 100 | 80 | 0 | 100 | 100 | post-emergence activity against GLXMA (GLXMA [2]; application rate 320 g/ha): 0%; pre-emergence activity against MATIN (MATIN [9]; application rate 1280 g/ha): 90%; pre-emergence activity against ALOMY (ALOMY [13]; application rate 320 g/ha): 100%; post-emergence activity against VERPE (VERPE [37]): 80%; pre-emergence activity against ABUTH (ABUTH [17]; application rate 1280 g/ha): 100%; post-emergence activity against VIOTR (VIOTR [38]): 80%; pre-emergence activity against SETVI (SETVI [18]; application rate 1280 g/ha): 100%; post-emergence activity against ABUTH (ABUTH [21]; application rate 1280 g/ha): 90%; post-emergence activity against ECHCG (ECHCG [22]; application rate 1280 g/ha): 90%; pre-emergence activity against VERPE (VERPE [24]; application rate 80 g/ha): 90%; pre-emergence activity against GLXMA (GLXMA [39]): 20%; post-emergence activity against LOLRI (LOLRI [40]): 90%; post-emergence activity against SETVI (SETVI [25]; application rate 1280 g/ha): 90%; pre-emergence activity against TRZAS (TRZAS [41]): 0%; post-emergence activity against ABUTH (ABUTH [42]): 80%
